This is an account of results in patent US20220160666A1, “COMPOSITIONS FOR USE IN SURGERY” (BTG INTERNATIONAL LIMITED, priority 2004, published 2022).

Test [1] has as its system brain field potentials (EEG power spectrum). The following applies: rats, cited from earlier work; for change of EEG theta, alpha1,2 and beta1,2 power: α2-adrenoceptor agonists, Dimpfel and Schober, 2001; for change of EEG alpha1,2 and beta1,2 power: general anaesthetics, Dimpfel, 2003.
For test [2], the system named is electrical activity of the human brain. The test can be described thus: Quantitative EEG (CATEEM) during and after 24 h intravenous infusion in healthy male volunteers, placebo-controlled crossover. The format is in vivo. The conditions noted are these: 300 mg/kg iv over 24 h. From the text: The present inventors have now studied the effect of ketosis, in the exemplified case induced by administration of sodium salt of (R)-3-hydroxybutyrate (herein referred to as KTX 0101) as a single intravenous infusion of increasing dose and duration to 3 groups (Parts A, B and C) with 3 cohorts of 3 subjects each in Part A, and 1 cohort in each of Parts B (n=3) and C (n=8). Parts A and B were a partial crossover design and Part C was a crossover design. For details see protocol.
A 17-electrode EEG was recorded pre-dose and at 6, 12 and 24 h during the infusion and 1 and 24 hours following the end of drug administration. Recordings were performed under two physiological conditions, namely with 5 minutes eyes open and eyes closed, respectively. KTX 0101 was administered intravenously at a dose of 300 mg/kg given over 24 hours to 1 cohort (n=8) in a double blind placebo controlled crossover design (Part C of the study).
Single rising doses of KTX 0101 or placebo were administered to groups of healthy male volunteers according to a pre-specified dose escalation schedule (see main report). Incremental doses were administered in a stepwise manner proceeding to each higher dose only if the drug was well tolerated and the criteria for stopping dosing had not been met. The last two cohorts obtained the highest doses of 300 mg/kg and consisted of enough volunteers to justify a preliminary evaluation of recorded EEG data in order to obtain information on the pharmacodynamic effects of the potential drug. After recording of pre dose values the infusion was started and continued for 24 hours. EEG recordings took place during the infusion (6, 12 and 24 h) and 1 and 24 h after the end of the infusion. Each recording period was performed under 5 minutes eyes open and 5 minutes of eyes closed condition.
The EEG was recorded bipolarly from 17 surface electrodes according to the international 10/20 system with Cz as a physical reference electrode (Computer aided topographical electro-encephalo-metry: CATEEM® from MediSyst GmbH, 35440 Linden, Germany), using an electrocap. The raw signals were amplified, digitized (2048 Hz/12 bit) and transmitted via fiber optical devices to the computer. […] ECG and EOG were recorded in one channel each in order to facilitate detection of those signals superposing on to the EEG. […] The amount of rejected data was determined automatically and given in percent of total recording time. […] The data was recorded under two physiological conditions over a period of 5 minutes each (eyes open and eyes closed).
Using a Lagrange interpolation, signals from 82 additional virtual electrodes were calculated to provide high resolution topographical maps. […] Data were analysed from 0.86 to 35 Hz using the CATEEM® software. […]

As for `N=C(N)NC(=O)Cc1c(Cl)cccc1Cl` [guanfacine], in test [1], the “change of EEG theta, alpha1,2 and beta1,2 power” value (“change of EEG theta” below) was “Combined increases in theta, alpha1,2 and beta1,2 power”.

Regarding `FC(F)OC(F)C(F)(F)F` (stereo not shown) [desflurane], in test [1], the “change of EEG alpha1,2 and beta1,2 power” value is “combined increases in alpha1,2 and beta1,2 power”.

For `Clc1cccc(Cl)c1N=C1NCCN1` [clonidine], the “change of EEG theta” value in test [1] was “Combined increases in theta, alpha1,2 and beta1,2 power”.

With `FC(F)OC(F)(F)C(F)Cl` (stereo not shown) [enflurane], the “change of EEG alpha1,2 and beta1,2 power” value in test [1] is “combined increases in alpha1,2 and beta1,2 power”.

`FC(F)(F)C(Cl)Br` (stereo not shown) [halothane]: the “change of EEG alpha1,2 and beta1,2 power” value in test [1] is “combined increases in alpha1,2 and beta1,2 power”.

Consider `Cc1cccc(C(C)c2c[nH]cn2)c1C` (stereo not shown) [metedomidine], for which, in test [1], the “change of EEG theta” value is “Combined increases in theta, alpha1,2 and beta1,2 power”.

As to `CC(Oc1c(Cl)cccc1Cl)C1=NCCN1` (single isomer, unassigned; (-)) [(-)lofexidine], the “change of EEG theta” value in test [1] is “Combined increases in theta, alpha1,2 and beta1,2 power”.

For `C[C@@H](O)CC(=O)[O-].[Na+]` [KTX 0101, sodium salt of (R)-3-hydroxybutyrate], the “time after end of infusion up to which EEG changes could be traced” value in test [2] is given as “up to 24 hours”. Further, in test [2] (averaged over 15 electrode positions, during and after infusion), the “change of EEG electrical power relative to pre-drug values” is “increases of electrical power were observed, especially with respect to theta, alpha and beta power”. Also, the “change of EEG electrical power relative to pre-dose values” in test [2] (eyes closed, centro-parietal regions, theta, alpha1, alpha2 and beta 1 ranges) was “increases of electrical power could be observed for the 6 h time period, less for the 12 h period but consistently thereafter”; in test [2] (eyes open, single electrode positions (FIG. 1)), “an increase of delta and theta power as well as of alpha power is observed”.

On to `COc1nc(C)nc(Cl)c1N=C1NCCN1` [maxonidine], for which the “change of EEG theta” value in test [1] was “Combined increases in theta, alpha1,2 and beta1,2 power”.

For isoflurothane, the “change of EEG alpha1,2 and beta1,2 power” value in test [1] is “combined increases in alpha1,2 and beta1,2 power”.
